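Cells were grown in 96-well plates and exposed to each compound for 48 hours at five concentrations; endpoints were interpolated linearly between bracketing concentrations, or set to the highest concentration if not reached. GI50: concentration for 50% inhibition of growth. The concentration for full growth arrest is given as TGI.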
Tests used:
Experiment in all cases: DTP human tumour cell line panel, 48 h
[1] = tested on: 786-0 renal
[2] = tested on: A498 renal
[3] = tested on: A549 NSCLC
[4] = tested on: ACHN renal
[5] = tested on: BT-549 breast
[6] = tested on: CAKI-1 renal
[7] = tested on: CCRF-CEM leukemia
[8] = tested on: COLO 205 colon
[9] = tested on: DU-145 prostate
[10] = tested on: EKVX NSCLC
[11] = tested on: HCC-2998 colon
[12] = tested on: HCT-116 colon
[13] = tested on: HCT-15 colon
[14] = tested on: HL-60(TB) leukemia
[15] = tested on: HOP-62 NSCLC
[16] = tested on: HOP-92 NSCLC
[17] = tested on: HS 578T breast
[18] = tested on: HT29 colon
[19] = tested on: IGROV1 ovarian
[20] = tested on: K-562 leukemia
[21] = tested on: KM12 colon
[22] = tested on: LOX IMVI melanoma
[23] = tested on: M14 melanoma
[24] = tested on: MALME-3M melanoma
[25] = tested on: MCF7 breast
[26] = tested on: MDA-MB-231 breast
[27] = tested on: MDA-MB-435
[28] = tested on: MOLT-4 leukemia
[29] = tested on: NCI-H226 lung
[30] = tested on: NCI-H23 lung
[31] = tested on: NCI-H460 lung
[32] = tested on: NCI-H522 lung
[33] = tested on: NCI/ADR-RES ovarian
[34] = tested on: OVCAR-3 ovarian
[35] = tested on: OVCAR-4 ovarian
[36] = tested on: OVCAR-5 ovarian
[37] = tested on: OVCAR-8 ovarian
[38] = tested on: PC-3 prostate
[39] = tested on: RPMI-8226 leukemia
[40] = tested on: RXF 393 renal
[41] = tested on: SF-268 CNS
[42] = tested on: SF-295 CNS
[43] = tested on: SF-539 CNS
[44] = tested on: SK-MEL-2 melanoma
[45] = tested on: SK-MEL-28 melanoma
[46] = tested on: SK-MEL-5 melanoma
[47] = tested on: SK-OV-3 ovarian
[48] = tested on: SN12C renal
[49] = tested on: SNB-19 CNS
[50] = tested on: SNB-75 CNS
[51] = tested on: SR leukemia
[52] = tested on: SW-620 colon
[53] = tested on: T-47D breast
[54] = tested on: TK-10 renal
[55] = tested on: U251 CNS
[56] = tested on: UACC-257 melanoma
[57] = tested on: UACC-62 melanoma
[58] = tested on: UO-31 renal
[59] = tested on: MDA-N

SMILES: O=C1C(=O)c2ccccc2-c2ccccc21
- GI50 [1]: 1.83 µM
- TGI [1]: 3.35 µM
- GI50 [2]: 1.8 µM
- TGI [2]: 3.32 µM
- GI50 [3]: 2.48 µM
- TGI [3]: 6.54 µM
- GI50 [4]: 1.44 µM
- TGI [4]: 2.84 µM
- GI50 [5]: 1.66 µM
- TGI [5]: 3.07 µM
- GI50 [6]: 1.75 µM
- TGI [6]: 3.34 µM
- GI50 [7]: 1.5 µM
- TGI [7]: 4.85 µM
- GI50 [8]: 2.02 µM
- TGI [8]: 4.28 µM
- GI50 [9]: 1.68 µM
- TGI [9]: 3.07 µM
- GI50 [10]: 1.81 µM
- TGI [10]: 3.25 µM
- GI50 [11]: 1.99 µM
- TGI [11]: 3.52 µM
- GI50 [12]: 0.831 µM
- TGI [12]: 2.21 µM
- GI50 [13]: 1.05 µM
- TGI [13]: 2.92 µM
- GI50 [14]: 1.56 µM
- TGI [14]: 4.11 µM
- GI50 [15]: 1.72 µM
- TGI [15]: 5.24 µM
- GI50 [16]: 1.46 µM
- TGI [16]: 2.93 µM
- GI50 [17]: 3.14 µM
- TGI [17]: 9.86 µM
- GI50 [18]: 3.4 µM
- TGI [18]: > 100 µM
- GI50 [19]: 2.07 µM
- TGI [19]: 3.75 µM
- GI50 [20]: 1.01 µM
- TGI [20]: 4.02 µM
- GI50 [21]: 1.86 µM
- TGI [21]: 3.4 µM
- GI50 [22]: 0.367 µM
- TGI [22]: 1.79 µM
- GI50 [23]: 1.76 µM
- TGI [23]: 3.29 µM
- GI50 [24]: 1.79 µM
- TGI [24]: 3.31 µM
- GI50 [25]: 1.67 µM
- TGI [25]: 3.8 µM
- GI50 [26]: 1.42 µM
- TGI [26]: 3.19 µM
- GI50 [27]: 0.198 µM
- TGI [27]: 0.416 µM
- GI50 [28]: 1.56 µM
- TGI [28]: 4.75 µM
- GI50 [29]: 1.72 µM
- TGI [29]: 3.18 µM
- GI50 [30]: 1.68 µM
- TGI [30]: 3.99 µM
- GI50 [31]: 1.92 µM
- TGI [31]: 3.99 µM
- GI50 [32]: 1.75 µM
- TGI [32]: 4.12 µM
- GI50 [33]: 0.543 µM
- TGI [33]: 2.9 µM
- GI50 [34]: 1.72 µM
- TGI [34]: 3.2 µM
- GI50 [35]: 1 µM
- TGI [35]: 2.25 µM
- GI50 [36]: 1.75 µM
- TGI [36]: 3.52 µM
- GI50 [37]: 0.662 µM
- TGI [37]: 2.15 µM
- GI50 [38]: 1.31 µM
- TGI [38]: 2.79 µM
- GI50 [39]: 0.583 µM
- TGI [39]: 2.79 µM
- GI50 [40]: 1.72 µM
- TGI [40]: 3.12 µM
- GI50 [41]: 1.61 µM
- TGI [41]: 3.15 µM
- GI50 [42]: 1.76 µM
- TGI [42]: 3.23 µM
- GI50 [43]: 1.6 µM
- TGI [43]: 2.99 µM
- GI50 [44]: 2.02 µM
- TGI [44]: 4.79 µM
- GI50 [45]: 1.77 µM
- TGI [45]: 3.24 µM
- GI50 [46]: 1.39 µM
- TGI [46]: 2.79 µM
- GI50 [47]: 1.73 µM
- TGI [47]: 3.25 µM
- GI50 [48]: 1.61 µM
- TGI [48]: 3.29 µM
- GI50 [49]: 1.45 µM
- TGI [49]: 2.95 µM
- GI50 [50]: 1.51 µM
- TGI [50]: 2.9 µM
- GI50 [51]: 0.555 µM
- TGI [51]: 7.82 µM
- GI50 [52]: 2.06 µM
- TGI [52]: 4.78 µM
- GI50 [53]: 0.49 µM
- TGI [53]: 2.72 µM
- GI50 [54]: 1.82 µM
- TGI [54]: 3.3 µM
- GI50 [55]: 1.67 µM
- TGI [55]: 3.53 µM
- GI50 [56]: 1.52 µM
- TGI [56]: 3.07 µM
- GI50 [57]: 1.52 µM
- TGI [57]: 3.03 µM
- GI50 [58]: 1.44 µM
- TGI [58]: 2.82 µM

SMILES: O=C1c2ccccc2-c2nc3ccc(O)cc3n21
- TGI [1]: > 100 µM
- TGI [3]: > 100 µM
- TGI [4]: > 100 µM
- TGI [5]: > 100 µM
- TGI [6]: > 100 µM
- TGI [7]: > 100 µM
- TGI [8]: > 100 µM
- TGI [9]: > 100 µM
- TGI [10]: > 100 µM
- TGI [11]: > 100 µM
- TGI [12]: > 100 µM
- TGI [13]: > 100 µM
- TGI [14]: > 100 µM
- TGI [15]: > 100 µM
- TGI [16]: > 100 µM
- TGI [18]: > 100 µM
- TGI [19]: > 100 µM
- TGI [20]: > 100 µM
- TGI [21]: > 100 µM
- TGI [23]: > 100 µM
- TGI [24]: > 100 µM
- TGI [25]: > 100 µM
- TGI [59]: > 100 µM
- TGI [28]: > 100 µM
- TGI [29]: > 100 µM
- TGI [30]: > 100 µM
- TGI [31]: > 100 µM
- TGI [32]: > 100 µM
- TGI [33]: > 100 µM
- TGI [34]: > 100 µM
- TGI [35]: > 100 µM
- TGI [36]: > 100 µM
- TGI [37]: > 100 µM
- TGI [38]: > 100 µM
- TGI [39]: > 100 µM
- TGI [40]: > 100 µM
- TGI [41]: > 100 µM
- TGI [42]: > 100 µM
- TGI [43]: > 100 µM
- TGI [44]: > 100 µM
- TGI [45]: > 100 µM
- TGI [46]: > 100 µM
- TGI [47]: > 100 µM
- TGI [48]: > 100 µM
- TGI [49]: > 100 µM
- TGI [50]: > 100 µM
- TGI [51]: > 100 µM
- TGI [52]: > 100 µM
- TGI [54]: > 100 µM
- TGI [55]: > 100 µM
- TGI [56]: > 100 µM
- TGI [57]: > 100 µM
- TGI [58]: > 100 µM

From PubChem BioAssay (NCI)
